These results are taken from patent publication US8299054B2, “Cyclic 11-beta hydroxysteroid dehydrogenase type 1 inhibitors” (Bristol-Myers Squibb Company, priority 2006, dated 2012).

The target in the first test is T1, 11beta-HSD1 (Mus musculus, UniProt P50172).
T1 construct: from tissue; host or cells: whole animal: diet induced obese (DIO) mice, Jackson Laboratory
T1 sequence (P50172 whole entry): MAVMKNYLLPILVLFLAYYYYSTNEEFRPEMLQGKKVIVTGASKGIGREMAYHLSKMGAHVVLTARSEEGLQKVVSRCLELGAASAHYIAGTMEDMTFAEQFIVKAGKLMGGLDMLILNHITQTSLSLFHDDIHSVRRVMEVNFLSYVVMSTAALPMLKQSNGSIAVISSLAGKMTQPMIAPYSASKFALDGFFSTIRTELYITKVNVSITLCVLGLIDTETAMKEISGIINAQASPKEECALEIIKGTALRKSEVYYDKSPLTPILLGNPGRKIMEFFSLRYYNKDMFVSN
Kind of test: In vivo inhibition of 11beta-HSD1: DHC administration to DIO mice, plasma corticosterone AUC. To be noted: 30 mpK, oral, DHC 10 mg/kg 60 minutes after compound.
Experimental: Studies were conducted utilizing diet induced obese (DIO) mice obtained from Jackson Laboratory (ME, USA). These mice were fed a 60% fat diet (Research Diets D12492) soon after weaning and kept on this diet for 24 weeks. These mice were individually housed. All mice were housed under controlled temperature (23° C.) and lighting (12 hours of light between 6 am to 6 pm, 12 hours of dark) with free access to water. The animals continued on this diet and were utilized for experimentation at 30 to 32 weeks of age, at which time these mice weighed 45 to 55 grams.
The basic model of 11-dehydrocorticosterone (DHC) administration to mice to produce corticosterone has been reported in the literature for clinical and preclinical evaluation of the activity of 11 β HSD. Essentially DHC (Steraloids INC, Newport R.I.), was suspended in the vehicle at a concentration of 10 mg/kg in a volume of 7.5 ml/kg of mouse body weight. […] Plasma was separated and collected and immediately frozen at −20° C. until corticosterone analysis could be assessed.
Plasma Corticosterone was measured using an EIA (IDS AC-14F1). Samples were measured at (1:2) for the −30 (or −60 minute) and 0 time point and (1:10) for the 30, 60 and 120 minutes time points. AUC was calculated using Graphpad and the zero timepoint was used as the baseline. One way ANOVA was calculated using Sigmastat. […]
The % inhibition is the relative decrease from the control value, in per cent. High values mean a response far below the control, low ones a response near the control. For `CNC(=O)OC1CN(C(=O)CC2(c3ccccc3)C3CC4CC2CC(C3)C4O)C1` (single isomer, unassigned) [Example 242], the “% inhibition” value was 65%.
Take `O=C(CC1(c2ccc(F)cc2)C2CC3CC1CC(C2)C3O)N1CC(O)C1` (centres unmarked) [Example 217]: the “% inhibition” value is recorded as 67%.

The next test deals with hepatic glucose production.
Assay: not given
To be noted: patients with type 2 diabetes, seven days, versus placebo; cited from earlier work.
`CC1(C)[C@@H](OC(=O)CCC(=O)O)CC[C@]2(C)[C@H]3C(=O)C=C4[C@@H]5C[C@@](C)(C(=O)O)CC[C@]5(C)CC[C@@]4(C)[C@]3(C)CC[C@@H]12` [carbenoxolone]: the hepatic glucose production entry is given as “decrease in hepatic glucose production”.

Another test deals with recombinant human 11beta-HSD1 (Homo sapiens, UniProt P28845). The test can be described thus: 11β-HSD-1 SPA Enzyme Assay (Scintillation Proximity assay, microsomes of transfected HEK 293 EBNA cells).
Sequence of recombinant human 11beta-HSD1 (P28845 whole entry): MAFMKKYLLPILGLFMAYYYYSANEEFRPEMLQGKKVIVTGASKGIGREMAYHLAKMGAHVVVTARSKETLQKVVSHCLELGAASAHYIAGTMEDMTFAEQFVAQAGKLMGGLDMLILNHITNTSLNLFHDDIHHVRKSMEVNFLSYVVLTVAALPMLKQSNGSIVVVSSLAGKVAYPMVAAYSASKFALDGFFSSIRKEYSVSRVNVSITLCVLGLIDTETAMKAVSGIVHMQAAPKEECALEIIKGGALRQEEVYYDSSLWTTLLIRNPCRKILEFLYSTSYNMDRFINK
Conditions: not given
In general terms: In a scintillation proximity assay essentially only radioactivity close to the scintillant gives light.
By IC50 is commonly meant the concentration that gives 50% inhibition. Turning to `O=C(O)C1(Cc2cccc(F)c2)C2CC3CC(C2)CC1C3` (centres unmarked) [Example 132], the IC50 was determined as 15 nM.
Still for that read-out and setting: then `Cc1noc(C)c1CC1(C(=O)O)C2CC3CC(C2)CC1C3` (centres unmarked) [Example 140], with 651 nM; and `O=C(CC1(c2ccccc2)C2CC3CC1CC(C2)C3O)N1CC(c2nnc3ccccn23)C1` (centres unmarked) [Example 35], with 636 nM; and `O=C(O)COC1CN(C(=O)CC2(c3ccc(F)cc3)C3CC4CC(C3)CC2C4)C1` (centres unmarked) [Example 117], with 90 nM.
Still for that read-out and setting: then `O=C(O)C1(Cc2coc(-c3ccc(F)cc3)n2)C2CC3CC(C2)CC1C3` (centres unmarked) [Example 55], with 2980 nM; and `O=C(O)CC1(Cc2ccccc2)C2CCCC1CCC2` (centres unmarked) [Example 49], with 97 nM.
Same read-out and setting: then `O=C(CC1(c2ccc(F)cc2)C2CC3CC(C2)CC1C3)N1CC(Oc2ccccc2)C1` (centres unmarked) [Example 174], with 1 nM.
Turning to `O=C(CC1(c2ccccc2)C2CC3CC1CC(C2)C3O)N1CC(CO)C1` (single isomer, unassigned) [Example 265], the IC50 was 6.1 nM.
Same read-out and setting: then `CC(C)(O)CNC(=O)OC1CN(C(=O)CC2(c3ccccc3)C3CC4CC2CC(C3)C4O)C1` (centres unmarked) [Example 243], with 16 nM; and `O=C(O)C1(CCc2ccccc2)C2CC3CC(C2)CC1C3` (centres unmarked) [Example 136], with 1150 nM.
Same read-out and setting: then `O=C(NCc1nnn[nH]1)OC1CN(C(=O)CC2(c3ccccc3)C3CC4CC2CC(C3)C4O)C1` (single isomer, unassigned) [Example 259], with 75 nM; and `CN(CCO)C(=O)CC1(c2ccc(F)cc2)C2CC3CC(C2)CC1C3` (centres unmarked) [Example 304], with 25 nM; and `CC1(CC(=O)N2CC(NC(=O)OCc3ccccc3)C2)C2CC3CC1CC(C2)C3O` (centres unmarked) [Example 183], with 182 nM.
Same read-out and setting: next, `N#Cc1ccc(OC2CN(C(=O)CC3(c4ccc(F)cc4)C4CC5CC(C4)CC3C5)C2)nc1` (centres unmarked) [Example 182]: 2.4 nM; `O=C(C[C@]1(Cc2ccccc2)C2CC3CC1C[C@@](O)(C3)C2)N1CC(O)C1` [Example 122]: 253 nM; `C=C1CC2CCC(C1)C2(CC(=O)O)c1ccc(F)cc1` (centres unmarked) [Example 134]: 30 nM.
Turning to `O=C(CC1(c2ccccc2)C2CC3CC1CC(C2)C3O)N1CCSC1` (centres unmarked) [Example 247], the IC50 was 3 nM.
Same read-out and setting: then `CS(=O)(=O)NC(=O)C1CN(C(=O)CC2(c3ccccc3)C3CC4CC2CC(C3)C4O)C1` (centres unmarked) [Example 250], with 1720 nM.
The same measure, in the same setting: next, `CNC(=O)OC1CN(C(=O)C2(Cc3ccc(Cl)cc3)C3CC4CC(C3)CC2C4)C1` (centres unmarked) [Example 240]: 67 nM; `CC(C)c1ccc(C2(CC(=O)N3CC(O)C3)C3CC4CC2CC(C3)C4O)cc1` (centres unmarked) [Example 292]: 2.8 nM.
On the same count and under the same terms, then `COC(=O)C1CN1C(=O)CC1(c2ccc(F)cc2)C2CC3CC(C2)CC1C3` (centres unmarked) [Example 79], with 81 nM.
On to `O=C(CC1(c2ccccc2)C2CC3CC1CC(C2)C3O)N1C[C@H](O)CO1` (single isomer, unassigned) [Example 270], for which the IC50 amounted to 16 nM.
On the same count and under the same terms, then `O=C(N1CC(O)C1)C1(Cc2ccccc2Cl)C2CC3CC(C2)CC1C3` (centres unmarked) [Example 37], with 15 nM; and `CNC(=O)NC1CN(C(=O)CC2(c3ccccc3)C3CC4CC2CC(C3)C4O)C1` (centres unmarked) [Example 212], with 127 nM; and `O=C(O)C(C(=O)N1CC(O)C1)C1(c2ccc(F)cc2)C2CC3CC(C2)CC1C3` (centres unmarked) [Example 190], with 9120 nM.
Still for that read-out and setting: then `O=C(CC1(c2ccc(F)cc2)C2CC3CC(C2)CC1C3)N1CC[C@H](O)C1` (single isomer, unassigned) [Example 302], with 2.4 nM; and `O=C(C[C@]1(Cc2ccccc2Cl)C2CC3CC1C[C@](O)(C3)C2)N1CC(O)C1` [Example 167], with 20 nM.
On the same count and under the same terms, then `CNC(=O)OC1CN(C(=O)CC2(c3ccccc3)C3CC4CC2CC(C3)C4O)C1` (single isomer, unassigned) [Example 242], with 8.8 nM; and `O=C(O)COC1(c2ccc(F)cc2)C2CC3CC(C2)CC1C3` (centres unmarked) [Example 8], with 633 nM.
Turning to `O=C(NC1CCN(C(=O)CC2(c3ccc(F)cc3)C3CC4CC(C3)CC2C4)C1)OCc1ccccc1` (centres unmarked) [Example 305], the IC50 came out at 28 nM.
Still for that read-out and setting: next, `O=C(CC1(c2ccccc2)C2CC3CC1CC(C2)C3O)N1CCC[C@@H](O)C1` (single isomer, unassigned) [Example 281]: 175 nM; `CS(=O)(=O)NC(=O)CC1(c2ccc(F)cc2)C2CC3CC(C2)CC1C3` (centres unmarked) [Example 22]: 159 nM; `CCN(CC)C(=O)CC1(c2ccc(F)cc2)C2CC3CC1CC(F)(C3)C2` (centres unmarked) [Example 307]: 383 nM.
On the same count and under the same terms, then `CC(C(=O)N1CC(O)C1)C1(c2ccc(F)cc2)C2CC3CC(C2)CC1C3` (centres unmarked) [Example 188], with 121 nM; and `COC(=O)NC1CN(C(=O)CC2(c3ccc(F)cc3)C3CC4CC2CC(C3)O4)C1` (centres unmarked) [Example 235], with 520 nM.
On the same count and under the same terms, next, `CNC(=O)OC1CN(C(=O)CC2(c3ccc(F)cc3)C3CC4CC2CC(C3)O4)C1` (centres unmarked) [Example 236]: 274 nM.
In the case of `O=C(O)C1CN(C(=O)C2CN(C(=O)CC3(Cc4ccccc4)C4CC5CC(C4)CC3C5)C2)C1` (centres unmarked) [Example 106], the IC50 worked out at 457 nM.
Same read-out and setting: then `C=CCO[C@]12CC3CC(C1)[C@](CC(=O)N1CC(O)C1)(c1ccc(F)cc1)C(C3)C2` [Example 98], with 1.6 nM; and `O=C(CC1(c2ccccc2)C2CC3CC1CC(C2)C3O)N1CCC[C@H](O)C1` (single isomer, unassigned) [Example 279], with 260 nM.
The same measure, in the same setting: next, `O=C(C[C@]1(c2ccc(F)cc2)C2CC3CC1C[C@@](C(=O)O)(C3)C2)N1CC(O)C1` [Example 181]: 128 nM; `CNC(=O)OC1CN(C(=O)C[C@]2(c3ccc(F)cc3)C3CC4CC2C[C@](C(N)=O)(C4)C3)C1` [Example 32]: 21 nM; `COC(=O)NC1CN(C(=O)C[C@]2(c3ccc(F)cc3)C3CC4CC2C[C@](C(N)=O)(C4)C3)C1` [Example 210]: 316 nM.
The same measure, in the same setting: then `O=C(CC1(c2ccc(F)cc2)C2CC3CC(C2)CC1C3)N1CCC(OCc2ccccc2)C1` (centres unmarked) [Example 303], with 4.7 nM.

Staying with this test, now noted: read-out: h HSD1 IC50; human microsomes, 40 nM 3H-cortisone, 4 hrs at room temperature.
For `Cn1nnc(C2CN(C(=O)CC3(c4ccccc4)C4CC5CC3CC(C4)C5O)C2)n1` (centres unmarked) [Example 28], the IC50 came out at 10 nM.
Still for that read-out and setting: then `CC1(CC(=O)N2CC(O)(c3ccc(F)cc3)C2)C2CC3CC1CC(C2)C3O` (centres unmarked) [Example 213], with 44 nM; and `CS(=O)(=O)NC1CN(C(=O)CC2(Cc3ccccc3)C3CC4CC2CC(C3)C4O)C1` (centres unmarked) [Example 195], with 105 nM; and `O=C(CC1(c2ccc(F)cc2)C2CCCC1CC(O)C2)N1CC(O)C1` (centres unmarked) [Example 23, 2-(9-(4-Fluorophenyl)-3-hydroxybicyclo[3.3.1]nonan-9-yl)-1-(3-hydroxyazetidin-1-yl)ethanone], with 8.3 nM.
Still for that read-out and setting: next, `Cc1nnc(C2CN(C(=O)CC3(c4ccccc4)C4CC5CC3CC(C4)C5O)C2)o1` (centres unmarked) [Example 34]: 196 nM; `CNC(=O)OCC1CN(C(=O)CC2(c3ccccc3)C3CC4CC2CC(C3)C4O)C1` (centres unmarked) [Example 216]: 5.1 nM; `Cc1nnc(COC2CN(C(=O)CC3(c4ccccc4)C4CC5CC3CC(C4)C5O)C2)o1` (centres unmarked) [Example 36]: 14 nM.
